Experimental data reported in ChEMBL document CHEMBL1134433, “Discovery of a novel CCR3 selective antagonist” (Bioorg Med Chem Lett, 2001).

Columns and labels:
Type in all cases: cell-based
[1] = target: T1, C-C chemokine receptor type 1 (Homo sapiens, UniProt P32246); experiment: Concentration required for 50% inhibition of [125I]eotaxin binding to human CCR1 receptor expressed in CHO cells
T1 sequence (P32246 whole entry): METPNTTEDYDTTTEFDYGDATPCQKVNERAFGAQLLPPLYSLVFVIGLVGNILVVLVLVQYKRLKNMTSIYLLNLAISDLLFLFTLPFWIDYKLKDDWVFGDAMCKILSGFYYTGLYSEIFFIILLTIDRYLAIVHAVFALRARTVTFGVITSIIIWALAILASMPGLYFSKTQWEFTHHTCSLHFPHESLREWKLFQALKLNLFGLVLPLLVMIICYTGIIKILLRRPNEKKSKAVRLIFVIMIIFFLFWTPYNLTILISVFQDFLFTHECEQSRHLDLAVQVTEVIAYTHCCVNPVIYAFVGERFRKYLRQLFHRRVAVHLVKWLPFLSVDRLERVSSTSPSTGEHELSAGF

[2] = target: T2, C-C chemokine receptor type 3 (Homo sapiens, UniProt P51677); experiment: Concentration required for 50% inhibition of [125I]eotaxin binding to human CCR3 receptor expressed in CHO cells
T2 sequence (P51677 whole entry): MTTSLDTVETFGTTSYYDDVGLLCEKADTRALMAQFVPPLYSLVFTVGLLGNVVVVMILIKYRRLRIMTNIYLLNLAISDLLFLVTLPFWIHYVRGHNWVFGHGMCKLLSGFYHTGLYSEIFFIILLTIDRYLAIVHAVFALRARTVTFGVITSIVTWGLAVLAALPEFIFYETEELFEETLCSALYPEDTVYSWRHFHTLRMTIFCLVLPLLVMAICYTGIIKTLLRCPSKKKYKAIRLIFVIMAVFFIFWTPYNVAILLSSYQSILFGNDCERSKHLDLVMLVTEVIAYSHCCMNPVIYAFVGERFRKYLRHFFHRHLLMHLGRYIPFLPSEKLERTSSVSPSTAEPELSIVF

[3] = target: T3, C-C chemokine receptor type 3 (Homo sapiens) (UniProt P51677); experiment: Percent inhibition of [125I]eotaxin binding to human CCR3 receptor expressed in CHO cells at 1 uM
T3 sequence (whole entry): T2 sequence (P51677 whole entry)

| SMILES | IC50 [1] | IC50 [2] | inhibition [3] |
| --- | --- | --- | --- |
| CCOc1ccc2nc(SCC(=O)NC3CCN(Cc4ccc(Cl)c(Cl)c4)CC3)sc2c1 | 3.6 µM | 0.02 µM | – |
| O=C(CSc1nc2ccccc2s1)NC1CCN(Cc2ccc(Cl)cc2)CC1 | 0.26 µM | 0.079 µM | – |
| CCOC(=O)c1ccc2nc(SCC(=O)NC3CCN(Cc4ccc(Cl)c(Cl)c4)CC3)sc2c1 | > 10 µM | 0.048 µM | – |
| O=C(CSc1nc2ccccc2s1)NC1CCN(Cc2cccc(Cl)c2)CC1 | > 10 µM | 0.28 µM | – |
| O=C(CSc1nc2ccccc2s1)NCC1CCCN(CC2CCCCC2)C1 (stereo not given) | – | 1 µM | – |
| O=C(CSc1nc2ccccc2s1)NC1CCN(Cc2ccc(Cl)c(Cl)c2)CC1 | 0.45 µM | 0.032 µM | – |
| Nc1ccc2nc(SCC(=O)NC3CCN(Cc4ccc(Cl)c(Cl)c4)CC3)sc2c1 | 1.9 µM | 0.0023 µM | – |
| CCCCCN1CCCC(CNC(=O)CSc2nc3ccccc3s2)C1 (stereo not given) | – | – | 0% |
| O=C(CSc1nc2ccccc2s1)NC1CCN(Cc2ccccc2)CC1 | 7.1 µM | 0.75 µM | – |

The next lines start with the values.

| IC50 [1] | IC50 [2] | inhibition [3] | SMILES |
| --- | --- | --- | --- |
| 4.2 µM | 1 µM | – | O=C(CSc1nc2ccccc2s1)NCC1CCCN(Cc2ccccc2)C1 (stereo not given) |
| – | – | 15% | O=C(CSc1nc2ccccc2s1)NCC1CCCN(Cc2cccc3ccccc23)C1 (stereo not given) |
| – | – | 0% | O=C(CSc1nc2ccccc2s1)NCC1CCCN(Cc2ccncc2)C1 (stereo not given) |
| – | – | 0% | O=C(CSc1nc2ccccc2s1)NCC1CCCN(Cc2nccs2)C1 (stereo not given) |
| – | – | 0% | O=C(CSc1nc2ccccc2s1)NCC1CCCN(CCc2ccccc2)C1 (stereo not given) |
| – | – | 5% | O=C(CSc1nc2ccccc2s1)NCC1CCCN(Cc2ccc3ccccc3c2)C1 (stereo not given) |
| – | – | 30% | CCCN1CCCC(CNC(=O)CSc2nc3ccccc3s2)C1 (stereo not given) |
| – | – | 0% | O=C(CSc1nc2ccccc2s1)NCC1CCCN(Cc2cccnc2)C1 (stereo not given) |
